Measured values reported in ChEMBL document CHEMBL3992546, “Discovery and optimization of benzimidazole derivatives as a novel chemotype of farnesoid X receptor (FXR) antagonists” (Bioorg Med Chem, 2017).
The source made the active and inactive calls. The rule behind the calls is not given here.

Assays:
[1] = target: T1, Bile acid receptor (Homo sapiens, UniProt Q96RI1); assay: Inhibition of GW4064-induced fluorecein-labeled SRC2-2 coactivator recruitment in GST-tagged FXR LBD (unknown origin) by Lanthascreen TR-FRET assay
T1 sequence (Q96RI1 whole entry): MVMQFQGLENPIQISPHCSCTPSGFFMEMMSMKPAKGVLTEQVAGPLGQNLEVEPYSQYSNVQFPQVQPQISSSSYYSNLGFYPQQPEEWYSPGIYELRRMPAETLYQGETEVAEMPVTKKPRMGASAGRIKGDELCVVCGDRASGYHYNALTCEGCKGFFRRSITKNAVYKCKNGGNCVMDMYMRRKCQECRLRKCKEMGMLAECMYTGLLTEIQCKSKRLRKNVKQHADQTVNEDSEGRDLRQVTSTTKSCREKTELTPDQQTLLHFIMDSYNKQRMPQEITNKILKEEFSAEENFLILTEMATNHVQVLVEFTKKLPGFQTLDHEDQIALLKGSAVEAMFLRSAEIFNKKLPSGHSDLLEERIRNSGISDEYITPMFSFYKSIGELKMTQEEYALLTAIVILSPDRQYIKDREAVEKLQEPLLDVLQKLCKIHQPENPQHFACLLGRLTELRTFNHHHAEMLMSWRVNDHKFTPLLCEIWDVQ

[2] = Antagonist activity at human FXRalpha expressed in human Hep3B cells assessed as inhibition of CDCA-induced FXR response element driven luciferase activity after 24 hrs; type: cell-based
[3] = target: T2, Bile acid receptor (Homo sapiens) (UniProt Q96RI1); assay: Antagonist activity at FXR in human Hep3B cells assessed as inhibition of CDCA-induced SHP expression level at 0.2 to 5 uM after 24 hrs by RT-PCR method; type: cell-based
T2 sequence (whole entry): T1 sequence (Q96RI1 whole entry)

[4] = target: T2, Bile acid receptor (Homo sapiens); assay: Antagonist activity at FXR in human Hep3B cells assessed as inhibition of CDCA-induced decrease in CYP7A1 expression level at 0.2 to 5 uM after 24 hrs by RT-PCR method; type: cell-based
[5] = target: T3, Retinoic acid receptor RXR-alpha (Homo sapiens) (UniProt P19793); assay: Antagonist activity at human RXRalpha expressed in human Hep3B cells assessed as inhibition of 9-cis-retinoic acid-induced RXR response element driven luciferase activity at 100 uM after 24 hrs; type: cell-based
T3 sequence (whole entry): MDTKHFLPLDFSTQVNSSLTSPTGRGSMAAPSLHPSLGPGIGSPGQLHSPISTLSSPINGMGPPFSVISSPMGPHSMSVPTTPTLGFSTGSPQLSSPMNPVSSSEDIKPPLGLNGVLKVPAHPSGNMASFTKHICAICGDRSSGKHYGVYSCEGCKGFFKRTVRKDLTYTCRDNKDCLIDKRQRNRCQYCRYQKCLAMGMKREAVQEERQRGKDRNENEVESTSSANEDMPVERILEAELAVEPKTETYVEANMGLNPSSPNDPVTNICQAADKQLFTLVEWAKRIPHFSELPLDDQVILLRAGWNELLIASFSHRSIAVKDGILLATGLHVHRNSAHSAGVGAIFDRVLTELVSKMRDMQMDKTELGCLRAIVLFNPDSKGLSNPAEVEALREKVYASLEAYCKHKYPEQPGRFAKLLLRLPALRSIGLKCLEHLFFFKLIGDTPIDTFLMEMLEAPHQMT

[6] = Homo sapiens, Hep3B, 24 h, read-out: IC50

| Structure (SMILES) | IC50 [1] | IC50 [2, 6] | also measured |
| --- | --- | --- | --- |
| CC(C)C[C@@H](c1nc2ccc(C(=O)O)cc2n1C)N1C(=O)CN(c2ccc(OC3CCCCC3)cc2)C1=O | 126 µM | 55.2 µM | – |
| Cn1c([C@@H](Cc2ccccc2)N2C(=O)CN(c3ccc(Oc4ccccc4)cc3)C2=O)nc2ccc(C(=O)O)cc21 | 87.5 µM | 13.9 µM | – |
| C/C=C1\C(=O)C[C@H]2[C@@H]3CCC4=CC(=O)CC[C@]4(C)[C@H]3CC[C@]12C [GUGGULSTERONE] | – | 2 µM | – |
| CC(C)C[C@@H](c1nc2cc(C(=O)O)ccc2n1C)N1C(=O)CN(c2ccc(Oc3ccccc3)cc2)C1=O | 113 µM | 18.2 µM | – |
| CC(C)C[C@@H](c1nc2ccc(C(=O)O)cc2n1C)N1C(=O)CN(c2ccc(F)cc2)C1=O | 399 µM | – | IC50 [2]: Not Active |
| CC(C)[C@H](c1nc2ccc(C(=O)O)cc2n1C)N1C(=O)CN(c2ccc(Oc3ccccc3)cc2)C1=O | 118 µM | 100 µM | – |
| CC(C)C[C@@H](c1nc2ccc(C(=O)O)cc2n1C)N1C(=O)CN(c2cccc(Oc3ccccc3)c2)C1=O | 18.2 µM | 9.9 µM | – |
| COc1ccc(Oc2ccc(N3CC(=O)N([C@@H](CC(C)C)c4nc5ccc(C(=O)O)cc5n4C)C3=O)cc2)cc1 | 75.3 µM | 4.5 µM | – |
| Cn1c([C@H](CC2CCCCC2)N2C(=O)CN(c3ccc(Oc4ccccc4)cc3)C2=O)nc2ccc(C(=O)O)cc21 | 24.4 µM | 2 µM | – |
| CC[C@H](C)[C@@H](c1nc2ccc(C(=O)O)cc2n1C)N1C(=O)CN(c2ccc(Oc3ccccc3)cc2)C1=O | 102 µM | 3.8 µM | – |
| C[C@@H](c1nc2ccc(C(=O)O)cc2n1C)N1C(=O)CN(c2ccc(Oc3ccccc3)cc2)C1=O | 10.4 µM | > 300 µM | – |
| Cc1ccc2nc([C@H](CC(C)C)N3C(=O)CN(c4ccc(Oc5ccccc5)cc4)C3=O)n(C)c2c1 | 65.6 µM | 0.175 µM | – |
| CC(C)[C@@H](c1nc2ccc(C(=O)O)cc2n1C)N1C(=O)CN(c2ccc(Oc3ccccc3)cc2)C1=O | 174 µM | 10.1 µM | – |
| CC[C@@H](c1nc2ccc(C(=O)O)cc2n1C)N1C(=O)CN(c2ccc(Oc3ccccc3)cc2)C1=O | 209 µM | 24.8 µM | – |
| CC(C)C[C@@H](c1nc2ccc(C(=O)O)cc2n1C)N1C(=O)CN(c2ccc(-c3ccccc3)cc2)C1=O | 23.1 µM | 28.1 µM | – |
| CC(C)C[C@@H](c1nc2ccc(C(=O)O)cc2n1C)N1CC(=O)N(c2ccc(Oc3ccccc3)cc2)CC1=O | 417 µM | – | IC50 [2]: Not Active |
| CC(C)C[C@@H](c1nc2ccc(C(=O)O)cc2n1C)N1C(=O)CN(c2ccc(Oc3ccccc3)cc2)C1=O | 43.4 µM | 5.6 µM | – |
| CC(C)C[C@H](c1nc2ccc(C(=O)O)cc2n1C)N1C(=O)CN(c2ccc(Oc3ccccc3)cc2)C1=O | 6.6 to 66.6 µM | 33.6 µM | – |
| Cc1ccc2nc([C@H](CC3CCCCC3)N3C(=O)CN(c4ccc(Oc5ccccc5)cc4)C3=O)n(C)c2c1 | 126 µM | 0.0012 µM | inhibition [3]: Active; inhibition [4]: Active; inhibition [5]: inactive |
| CC(C)C[C@@H](c1nc2ccc(C(=O)O)cc2n1C)N1C(=O)CN(c2ccc(Oc3ccc(Cl)cc3)cc2)C1=O | 2.56 µM | 4.1 µM | – |
| Cn1c([C@@H](N2C(=O)CN(c3ccc(Oc4ccccc4)cc3)C2=O)C(C)(C)C)nc2ccc(C(=O)O)cc21 | 77.1 µM | 6.3 µM | – |
| CC(C)C[C@@H](c1nc2ccc(C(=O)O)cc2n1C)N1C(=O)N(c2ccc(Oc3ccccc3)cc2)C(C)(C)C1=O | 105 µM | 24.4 µM | – |
| Cn1c([C@H](Cc2ccccc2)N2C(=O)CN(c3ccc(Oc4ccccc4)cc3)C2=O)nc2ccc(C(=O)O)cc21 | 35.2 µM | 6.4 µM | – |
| CC(C)C[C@@H](c1nc2ccc(C(=O)O)cc2n1C)N1CCN(c2ccc(Oc3ccccc3)cc2)C1=O | 28.5 µM | 5.7 µM | – |
